# Data published in ChEMBL document CHEMBL1201862, “PubChem BioAssay data set” (2004).
# Active and inactive are the calls of the source.
# What was measured:
# Cytochrome P450 2C9 = Cytochrome P450 2C9 (Homo sapiens, UniProt P11712)
# Fatty acid synthase [1] = molecular target: T1, Fatty acid synthase (Homo sapiens, UniProt P49327); experiment: FAS thioesterase domain inhibitors, dose response, biochemical, endpoint fluorescence intensity, uHTS hits (AID 624327); assay type: functional;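 also: fluorescence from hydrolysis of an O-methyl fluorescein acyl ester substrate by the enzyme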
# Fatty acid synthase [2] = molecular target: T1, Fatty acid synthase; experiment: FAS thioesterase domain inhibitors, dose response, biochemical, kinetic fluorescence intensity (AID 624326); assay type: functional;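 also: rate of fluorescence rise from hydrolysis of a fluorogenic O-methyl fluorescein ester substrate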
# [3] = molecular target: T2, Replicative DNA helicase DnaB (Mycobacterium tuberculosis, UniProt P9WMR3); experiment: DnaB intein splicing inhibitors, dose response, biochemical, cell-free fluorescence (AID 449749); assay type: functional
# T2 sequence (P9WMR3 whole entry): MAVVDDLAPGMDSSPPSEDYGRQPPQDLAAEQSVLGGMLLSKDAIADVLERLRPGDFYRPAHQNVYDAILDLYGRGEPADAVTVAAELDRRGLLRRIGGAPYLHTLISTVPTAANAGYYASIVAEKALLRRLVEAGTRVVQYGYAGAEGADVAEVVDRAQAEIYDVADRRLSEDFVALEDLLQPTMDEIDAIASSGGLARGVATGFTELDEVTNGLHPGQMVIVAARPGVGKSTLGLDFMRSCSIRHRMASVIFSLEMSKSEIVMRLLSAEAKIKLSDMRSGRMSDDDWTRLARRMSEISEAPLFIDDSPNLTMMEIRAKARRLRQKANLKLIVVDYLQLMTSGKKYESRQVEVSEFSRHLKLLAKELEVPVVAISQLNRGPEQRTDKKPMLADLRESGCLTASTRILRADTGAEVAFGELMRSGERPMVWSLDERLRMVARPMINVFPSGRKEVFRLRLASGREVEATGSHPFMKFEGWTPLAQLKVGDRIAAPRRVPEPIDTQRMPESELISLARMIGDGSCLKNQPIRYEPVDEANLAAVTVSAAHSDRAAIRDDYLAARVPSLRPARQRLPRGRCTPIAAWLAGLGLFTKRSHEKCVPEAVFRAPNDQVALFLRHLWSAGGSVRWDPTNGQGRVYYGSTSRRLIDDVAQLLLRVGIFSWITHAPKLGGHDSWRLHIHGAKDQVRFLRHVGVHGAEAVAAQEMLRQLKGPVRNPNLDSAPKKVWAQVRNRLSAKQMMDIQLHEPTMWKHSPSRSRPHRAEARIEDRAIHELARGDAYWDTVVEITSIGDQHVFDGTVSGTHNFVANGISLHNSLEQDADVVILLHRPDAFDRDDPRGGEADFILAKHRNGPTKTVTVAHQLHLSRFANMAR
# Protein RecA = molecular target: T3, Protein RecA (Mycobacterium tuberculosis, UniProt P9WHJ3); experiment: Fluorescence Cell-Free Homogeneous Dose Retest to Identify Inhibitors of RecA-Intein Splicing Activity. [Related pubchem assays (depositor defined):AID2097, AID2223, AID489010, AID492950]; assay type: functional
# T3 sequence (P9WHJ3 whole entry): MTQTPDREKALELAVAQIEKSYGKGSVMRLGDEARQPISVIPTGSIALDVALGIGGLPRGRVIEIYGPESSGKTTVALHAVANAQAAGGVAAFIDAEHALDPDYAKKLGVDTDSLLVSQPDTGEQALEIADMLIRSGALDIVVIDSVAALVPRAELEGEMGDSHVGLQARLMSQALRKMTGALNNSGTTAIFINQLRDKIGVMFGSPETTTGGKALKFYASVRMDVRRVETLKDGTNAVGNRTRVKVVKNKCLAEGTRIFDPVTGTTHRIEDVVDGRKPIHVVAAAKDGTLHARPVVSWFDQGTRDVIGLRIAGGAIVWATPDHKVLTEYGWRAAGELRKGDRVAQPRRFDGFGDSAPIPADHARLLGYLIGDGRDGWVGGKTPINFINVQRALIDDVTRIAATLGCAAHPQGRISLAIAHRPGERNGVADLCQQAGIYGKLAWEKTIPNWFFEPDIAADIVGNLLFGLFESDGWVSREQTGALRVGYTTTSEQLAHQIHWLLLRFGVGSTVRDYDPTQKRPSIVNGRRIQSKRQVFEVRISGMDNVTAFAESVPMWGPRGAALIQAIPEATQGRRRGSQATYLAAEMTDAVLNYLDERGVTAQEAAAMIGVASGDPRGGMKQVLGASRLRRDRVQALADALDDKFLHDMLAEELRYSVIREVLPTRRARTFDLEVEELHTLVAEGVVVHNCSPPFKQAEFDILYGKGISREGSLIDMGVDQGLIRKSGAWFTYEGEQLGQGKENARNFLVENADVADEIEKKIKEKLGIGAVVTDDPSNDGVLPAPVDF
# Cytochrome P450 3A4 = Cytochrome P450 3A4 (Homo sapiens, UniProt P08684);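 also: CYP3A4 tested as one member of a cytochrome P450 panel screen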
# Cytochrome P450 2C19 = Cytochrome P450 2C19 (Homo sapiens, UniProt P33261); experiment: Cytochrome panel assay with activity outcomes. Panel member name: p450-cyp2c19 Compounds with AC50 equal or less than 10 uM are considered active; assay type: functional; conditions: read-out: AC50
# Cytochrome P450 2D6 = Cytochrome P450 2D6 (Homo sapiens, UniProt P10635);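 also: CYP2D6 member of a cytochrome P450 panel assay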
# Cytochrome P450 1A2 = molecular target: T4, Cytochrome P450 1A2 (Homo sapiens, UniProt P05177);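 also: PubChem cytochrome P450 panel assay, CYP1A2 panel member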
# T4 sequence (P05177 whole entry): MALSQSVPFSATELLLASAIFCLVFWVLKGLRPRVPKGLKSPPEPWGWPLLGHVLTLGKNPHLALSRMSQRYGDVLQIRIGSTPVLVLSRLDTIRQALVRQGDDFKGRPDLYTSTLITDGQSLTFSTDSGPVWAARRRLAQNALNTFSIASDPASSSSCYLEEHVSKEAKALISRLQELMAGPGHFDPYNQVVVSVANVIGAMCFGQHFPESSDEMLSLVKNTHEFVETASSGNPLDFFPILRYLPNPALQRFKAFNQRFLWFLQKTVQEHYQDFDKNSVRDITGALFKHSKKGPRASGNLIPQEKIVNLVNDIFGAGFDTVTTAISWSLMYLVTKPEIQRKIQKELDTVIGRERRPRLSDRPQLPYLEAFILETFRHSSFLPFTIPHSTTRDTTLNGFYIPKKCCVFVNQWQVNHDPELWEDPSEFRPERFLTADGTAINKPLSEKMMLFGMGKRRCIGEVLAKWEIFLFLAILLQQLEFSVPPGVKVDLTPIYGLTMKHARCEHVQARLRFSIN
# H9c2 = experiment: cells; assay type: functional, cell-based; conditions: Rattus norvegicus, H9c2, Myocardium;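 also: confirmatory concentration-response retest of ultra-high-throughput screening hits for modulation of myocardial damage; cell death induced by hydrogen peroxide oxidative stress; compound pretreatment for 60 min then peroxide exposure for 2 h; potency is for protecting the cells against peroxide damage rather than for killing them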
# Paired box protein Pax-8 = Paired box protein Pax-8 (Homo sapiens, UniProt Q06710); experiment: inhibitors of PAX8-driven TPO luciferase reporter, dose response, RMG-I cells, cherry-pick (AID 687027); assay type: functional, cell-based;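 also: luciferase reporter driven by Pax8 target thyroperoxidase promoter measured by SteadyGlo luminescence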
# [4] = molecular target: T5, Rac GTPase-activating protein 1 (Homo sapiens, UniProt Q9H0H5); experiment: MgcRacGAP GTPase-activating activity inhibitors, confirmation, biochemical, ADP Hunter fluorescence, primary and confirmatory (AID 624330); assay type: functional
# T5 sequence (Q9H0H5 whole entry): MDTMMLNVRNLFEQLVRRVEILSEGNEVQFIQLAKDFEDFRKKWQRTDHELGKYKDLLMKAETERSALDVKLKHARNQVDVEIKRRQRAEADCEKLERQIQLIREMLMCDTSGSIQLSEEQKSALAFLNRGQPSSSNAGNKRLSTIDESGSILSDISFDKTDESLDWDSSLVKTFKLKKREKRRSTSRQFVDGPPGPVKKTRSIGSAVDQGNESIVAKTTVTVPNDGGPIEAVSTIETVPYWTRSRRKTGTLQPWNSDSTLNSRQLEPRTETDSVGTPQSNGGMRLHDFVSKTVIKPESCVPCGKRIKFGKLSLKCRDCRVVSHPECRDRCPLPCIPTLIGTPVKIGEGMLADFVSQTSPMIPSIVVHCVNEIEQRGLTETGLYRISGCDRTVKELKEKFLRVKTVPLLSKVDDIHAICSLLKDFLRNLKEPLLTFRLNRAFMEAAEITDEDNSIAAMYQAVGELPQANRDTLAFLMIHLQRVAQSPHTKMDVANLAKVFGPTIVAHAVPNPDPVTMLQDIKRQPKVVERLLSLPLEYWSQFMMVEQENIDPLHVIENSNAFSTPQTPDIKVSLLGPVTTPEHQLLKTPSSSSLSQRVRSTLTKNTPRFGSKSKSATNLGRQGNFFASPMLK
# T1 sequence (P49327 whole entry, the tested form may be a part): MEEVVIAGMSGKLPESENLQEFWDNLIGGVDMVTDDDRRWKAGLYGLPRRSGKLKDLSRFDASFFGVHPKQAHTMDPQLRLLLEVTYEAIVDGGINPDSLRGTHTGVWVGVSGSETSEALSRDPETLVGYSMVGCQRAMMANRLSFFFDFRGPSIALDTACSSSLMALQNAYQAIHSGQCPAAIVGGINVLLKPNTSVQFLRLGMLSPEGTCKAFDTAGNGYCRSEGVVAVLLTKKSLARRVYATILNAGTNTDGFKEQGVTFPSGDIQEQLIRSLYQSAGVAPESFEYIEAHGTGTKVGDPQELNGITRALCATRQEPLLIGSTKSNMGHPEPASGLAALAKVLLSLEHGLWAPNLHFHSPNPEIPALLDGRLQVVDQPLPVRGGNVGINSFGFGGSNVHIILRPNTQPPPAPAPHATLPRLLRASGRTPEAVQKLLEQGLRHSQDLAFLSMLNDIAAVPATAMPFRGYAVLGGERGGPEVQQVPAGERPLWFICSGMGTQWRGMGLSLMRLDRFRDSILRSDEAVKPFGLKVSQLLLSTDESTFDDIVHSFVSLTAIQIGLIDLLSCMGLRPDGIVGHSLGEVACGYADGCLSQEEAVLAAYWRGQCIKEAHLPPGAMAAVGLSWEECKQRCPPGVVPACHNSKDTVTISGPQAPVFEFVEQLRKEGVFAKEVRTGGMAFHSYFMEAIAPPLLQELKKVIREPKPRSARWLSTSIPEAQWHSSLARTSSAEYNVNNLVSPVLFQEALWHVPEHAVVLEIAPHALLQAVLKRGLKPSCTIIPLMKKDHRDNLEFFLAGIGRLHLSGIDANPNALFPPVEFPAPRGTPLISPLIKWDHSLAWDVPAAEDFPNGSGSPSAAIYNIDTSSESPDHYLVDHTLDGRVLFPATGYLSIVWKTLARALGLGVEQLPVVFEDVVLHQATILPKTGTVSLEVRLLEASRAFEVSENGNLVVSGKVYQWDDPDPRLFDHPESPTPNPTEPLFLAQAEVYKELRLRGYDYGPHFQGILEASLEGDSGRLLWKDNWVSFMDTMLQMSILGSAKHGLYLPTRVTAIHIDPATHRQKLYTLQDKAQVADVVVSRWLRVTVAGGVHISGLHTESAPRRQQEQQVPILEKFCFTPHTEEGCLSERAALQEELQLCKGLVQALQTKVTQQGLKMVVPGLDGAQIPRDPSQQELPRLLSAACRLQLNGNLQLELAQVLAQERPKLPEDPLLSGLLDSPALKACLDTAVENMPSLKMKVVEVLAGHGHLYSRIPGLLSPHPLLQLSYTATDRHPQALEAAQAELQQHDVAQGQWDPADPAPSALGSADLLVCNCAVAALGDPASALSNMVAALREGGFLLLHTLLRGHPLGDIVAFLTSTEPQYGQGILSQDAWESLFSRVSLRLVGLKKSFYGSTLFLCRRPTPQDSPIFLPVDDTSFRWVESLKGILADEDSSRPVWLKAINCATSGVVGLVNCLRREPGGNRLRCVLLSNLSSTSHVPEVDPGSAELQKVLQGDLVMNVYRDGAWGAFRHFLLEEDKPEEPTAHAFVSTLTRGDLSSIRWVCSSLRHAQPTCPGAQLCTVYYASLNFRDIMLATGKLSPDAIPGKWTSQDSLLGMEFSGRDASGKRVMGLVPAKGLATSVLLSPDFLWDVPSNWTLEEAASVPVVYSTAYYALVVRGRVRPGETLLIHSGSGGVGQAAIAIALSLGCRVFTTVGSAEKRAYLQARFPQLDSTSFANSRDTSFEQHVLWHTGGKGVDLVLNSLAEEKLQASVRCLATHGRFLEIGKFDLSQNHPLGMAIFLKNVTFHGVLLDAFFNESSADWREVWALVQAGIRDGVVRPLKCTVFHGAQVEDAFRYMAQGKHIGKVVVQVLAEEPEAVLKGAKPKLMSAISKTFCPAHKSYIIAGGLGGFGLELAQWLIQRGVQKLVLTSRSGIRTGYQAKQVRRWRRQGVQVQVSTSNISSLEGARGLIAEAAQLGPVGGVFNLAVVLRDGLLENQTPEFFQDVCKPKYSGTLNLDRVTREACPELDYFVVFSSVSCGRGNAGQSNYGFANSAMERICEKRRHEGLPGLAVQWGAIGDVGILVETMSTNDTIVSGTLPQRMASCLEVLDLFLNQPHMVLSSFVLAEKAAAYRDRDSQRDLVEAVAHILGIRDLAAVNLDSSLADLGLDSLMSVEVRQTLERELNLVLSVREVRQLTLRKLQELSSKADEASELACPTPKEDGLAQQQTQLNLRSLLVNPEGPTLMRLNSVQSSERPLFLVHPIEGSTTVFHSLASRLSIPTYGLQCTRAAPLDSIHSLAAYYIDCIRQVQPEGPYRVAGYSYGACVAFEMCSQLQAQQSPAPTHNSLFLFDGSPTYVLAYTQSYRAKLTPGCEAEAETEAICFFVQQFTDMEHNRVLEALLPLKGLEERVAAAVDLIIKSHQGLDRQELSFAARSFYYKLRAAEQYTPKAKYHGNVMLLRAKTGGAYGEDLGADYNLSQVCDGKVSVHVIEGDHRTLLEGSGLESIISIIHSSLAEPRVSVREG
# Chain of Cytochrome P450 2C9 (P11712 whole entry, the tested form may be a part): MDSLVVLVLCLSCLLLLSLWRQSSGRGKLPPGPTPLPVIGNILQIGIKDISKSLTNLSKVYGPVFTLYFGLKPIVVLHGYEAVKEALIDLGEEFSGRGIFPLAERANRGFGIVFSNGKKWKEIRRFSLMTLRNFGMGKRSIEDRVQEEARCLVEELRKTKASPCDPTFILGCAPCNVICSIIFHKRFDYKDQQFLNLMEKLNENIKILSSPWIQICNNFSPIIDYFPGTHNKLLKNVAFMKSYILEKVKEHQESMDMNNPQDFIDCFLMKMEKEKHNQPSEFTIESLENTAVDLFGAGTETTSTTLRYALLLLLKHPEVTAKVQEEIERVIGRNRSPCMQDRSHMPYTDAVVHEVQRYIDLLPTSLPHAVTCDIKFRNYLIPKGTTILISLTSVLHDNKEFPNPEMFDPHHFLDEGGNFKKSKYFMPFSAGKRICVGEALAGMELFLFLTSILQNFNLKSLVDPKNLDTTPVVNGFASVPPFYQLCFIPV
# Chain of Paired box protein Pax-8 (Q06710 whole entry): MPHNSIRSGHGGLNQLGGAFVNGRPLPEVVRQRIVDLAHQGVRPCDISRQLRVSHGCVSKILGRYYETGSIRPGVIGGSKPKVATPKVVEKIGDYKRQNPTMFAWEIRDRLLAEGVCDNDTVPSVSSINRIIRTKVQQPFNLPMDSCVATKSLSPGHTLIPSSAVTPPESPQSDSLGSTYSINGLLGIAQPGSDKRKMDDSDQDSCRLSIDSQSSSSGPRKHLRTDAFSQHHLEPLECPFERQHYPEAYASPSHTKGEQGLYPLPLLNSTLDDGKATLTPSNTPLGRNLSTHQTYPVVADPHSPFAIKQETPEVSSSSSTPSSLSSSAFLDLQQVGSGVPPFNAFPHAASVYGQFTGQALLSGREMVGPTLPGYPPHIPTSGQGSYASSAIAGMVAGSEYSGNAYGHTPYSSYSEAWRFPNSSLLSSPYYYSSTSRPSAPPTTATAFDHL
# Chain of Cytochrome P450 3A4 (P08684 whole entry): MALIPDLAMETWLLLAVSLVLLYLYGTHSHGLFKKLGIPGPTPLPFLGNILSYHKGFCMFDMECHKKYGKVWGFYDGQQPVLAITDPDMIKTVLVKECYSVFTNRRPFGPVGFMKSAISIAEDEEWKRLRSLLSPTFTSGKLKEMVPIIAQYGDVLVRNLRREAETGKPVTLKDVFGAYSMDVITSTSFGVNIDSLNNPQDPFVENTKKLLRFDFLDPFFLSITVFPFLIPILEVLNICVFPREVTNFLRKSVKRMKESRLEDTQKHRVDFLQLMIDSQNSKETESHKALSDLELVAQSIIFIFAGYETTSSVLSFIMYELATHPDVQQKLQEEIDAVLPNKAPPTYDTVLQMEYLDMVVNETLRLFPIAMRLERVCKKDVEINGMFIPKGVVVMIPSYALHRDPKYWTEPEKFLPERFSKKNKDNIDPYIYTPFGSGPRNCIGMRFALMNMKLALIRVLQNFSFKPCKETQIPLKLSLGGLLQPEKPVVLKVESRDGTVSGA
# Chain of Cytochrome P450 2D6 (P10635 whole entry): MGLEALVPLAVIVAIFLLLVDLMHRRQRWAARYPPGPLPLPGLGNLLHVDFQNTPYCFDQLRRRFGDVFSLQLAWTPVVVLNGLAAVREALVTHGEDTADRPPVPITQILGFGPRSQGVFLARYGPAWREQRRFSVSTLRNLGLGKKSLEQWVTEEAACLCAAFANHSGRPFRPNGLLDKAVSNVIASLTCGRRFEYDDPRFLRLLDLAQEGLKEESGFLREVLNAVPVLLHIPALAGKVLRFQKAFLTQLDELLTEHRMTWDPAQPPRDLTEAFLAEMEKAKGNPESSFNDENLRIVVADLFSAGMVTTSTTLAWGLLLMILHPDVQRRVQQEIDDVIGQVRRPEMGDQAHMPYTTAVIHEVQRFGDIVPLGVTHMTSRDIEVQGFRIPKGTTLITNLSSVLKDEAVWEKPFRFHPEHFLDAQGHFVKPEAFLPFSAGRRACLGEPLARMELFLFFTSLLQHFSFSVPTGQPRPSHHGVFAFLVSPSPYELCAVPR
# Chain of Cytochrome P450 2C19 (P33261 whole entry): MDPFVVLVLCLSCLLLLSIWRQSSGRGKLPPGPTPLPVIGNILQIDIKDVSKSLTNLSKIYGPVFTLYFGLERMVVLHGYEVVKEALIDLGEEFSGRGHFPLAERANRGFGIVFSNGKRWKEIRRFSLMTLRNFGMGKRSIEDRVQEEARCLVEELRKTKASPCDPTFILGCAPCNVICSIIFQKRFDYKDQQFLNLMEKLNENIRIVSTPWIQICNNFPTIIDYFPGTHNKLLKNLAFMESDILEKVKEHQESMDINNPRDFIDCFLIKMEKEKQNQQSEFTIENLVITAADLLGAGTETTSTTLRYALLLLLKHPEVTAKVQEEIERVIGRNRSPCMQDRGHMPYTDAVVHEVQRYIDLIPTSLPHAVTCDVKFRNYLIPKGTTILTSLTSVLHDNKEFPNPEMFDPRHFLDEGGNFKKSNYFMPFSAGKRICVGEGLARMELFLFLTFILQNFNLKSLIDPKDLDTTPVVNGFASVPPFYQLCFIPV
compound,measurement,setting,value
Cc1c(NC(=O)C2CCN(S(=O)(=O)c3ccc(Cl)cc3)CC2)c(=O)n(-c2ccccc2)n1C,AC50,Cytochrome P450 2C9,14.1 µM (inconclusive)
COc1ccc(NC(=O)CN(c2ccc([N+](=O)[O-])cc2)S(=O)(=O)c2ccccc2)c(OC)c1,IC50,Fatty acid synthase [1],4.43 µM (active)
same,IC50,Fatty acid synthase [2],5.78 µM (active)
CCOc1ccccc1C1C(C#N)=C(N)Oc2[nH]nc(CC)c21 (centres undefined),AC50,[3],13.4 µM (active)
same,EC50,Protein RecA,7.04 µM (active)
same,AC50,Cytochrome P450 3A4,7.08 µM (inconclusive)
same,AC50,Cytochrome P450 2C9,17.8 µM (inconclusive)
O=C(Nc1ccc(Cc2ccncc2)cc1)c1ccc(Cl)c([N+](=O)[O-])c1,IC50,Fatty acid synthase [1],10.2 µM (active)
same,IC50,Fatty acid synthase [2],10.9 µM (active)
COc1ccc(CCNC(=O)c2nnc(O)c3ccccc23)cc1,AC50,Cytochrome P450 2C19,2.24 µM (inconclusive)
same,AC50,Cytochrome P450 2D6,5.01 µM (inconclusive)
same,AC50,Cytochrome P450 1A2,7.08 µM (inconclusive)
same,AC50,Cytochrome P450 3A4,7.08 µM (inconclusive)
same,AC50,Cytochrome P450 2C9,3.16 µM (inconclusive)
O=[N+]([O-])c1ccc(SNc2ccccc2)c([N+](=O)[O-])c1,IC50,Fatty acid synthase [1],10.4 µM (active)
same,IC50,Fatty acid synthase [2],9.38 µM (active)
CC(=O)Nc1cc(-c2cccc(C(=O)N(C)C)c2)cn2c(-c3ccc(C(C)=O)cc3)cnc12,IC50,H9c2,> 79 µM (inactive)
O=C(N/N=C/c1coc2ccc(Cl)cc2c1=O)c1ccc(O)cc1,AC50,[3],> 380 µM (inactive)
same,EC50,Protein RecA,16.1 µM (active)
same,IC50,Fatty acid synthase [1],6.64 µM (active)
same,IC50,Fatty acid synthase [2],4.84 µM (active)
C[C@H](CO)N1C[C@H](C)[C@@H](CN(C)Cc2ccc(Cl)c(Cl)c2)OCCCC[C@H](C)Oc2ccc(NC(=O)Nc3ccccc3)cc2C1=O,AC50,Paired box protein Pax-8,8.65 µM (active)
CCn1cc(C(=O)N/N=C(/C)c2ccc(F)cc2)c(=O)c2cc(F)c(N3CCCC3)cc21,AC50,Cytochrome P450 2C9,10 µM (inconclusive)
CCn1c(-c2ccccc2)cs/c1=N\c1ccc(O)cc1,IC50,[4],31.7 µM (active)
CCCN(/C=N/c1sc2c(c1C#N)CCCCC2)CCC,AC50,Cytochrome P450 2D6,15.8 µM (inconclusive)
same,AC50,Cytochrome P450 2C9,12.6 µM (inconclusive)
CC1(C)OC(=O)C(/C=N/CC(O)c2ccccc2)=C(O)O1 (centres undefined),AC50,Cytochrome P450 1A2,25.1 µM (inconclusive)
same,AC50,Cytochrome P450 2C9,31.6 µM (inconclusive)
Nc1nc2c(ncn2[C@@H]2O[C@H](CO)[C@@H](O)[C@H]2O)c(=S)[nH]1 [THIOGUANOSINE],AC50,Paired box protein Pax-8,1.16 µM (active)
